The subject of data set [1] is alkaline phosphatase activity in T47D cells. The experiment in a line: Effects of progestins and antiprogestins on alkaline phosphatase activity in T47D cells. The following applies: Homo sapiens; for IC50: antagonist mode in the presence of 1 nM progesterone, 24 hours. Type of data set: cell-based. Here is the method:
The purpose of this example is to identify progestins or antiprogestins by determining a compound's effect on alkaline phosphatase activity in T47D cells.
A. Reagents: • Culture medium: Dulbecco's Modified Eagle Medium (DMEM):F12 (1:1) (GIBCO, BRL) supplemented with 5% (v/v) charcoal stripped fetal bovine serum (not heat-inactivated), 100 U/mL penicillin, 100 μg/mL streptomycin, and 2 mM of the GlutaMax® reagent (GIBCO, BRL). • Alkaline phosphatase assay buffer: • I. 0.1M Tris-HCl, pH 9.8, containing 0.2% Triton® X-100 reagent • II. 0.1M Tris-HCl, pH 9.8, containing 4 mM p-nitrophenyl phosphate (Sigma).
Frozen T47D cells are thawed in a 37° C. water bath and diluted to 280,000 cells/mL in culture medium. To each well in a 96-well plate (Falcon, Becton Dickinson Labware), was added 180 μL of diluted cell suspension. Twenty μL of reference or test compounds diluted in the culture medium is then added to each well. When testing for progestin antagonist activity, reference antiprogestins or test compounds are added in the presence of 1 nM progesterone. The cells are incubated at 37° C. in a 5% CO2/humidified atmosphere for 24 hours. For high throughput screening, one concentration of each compound will be tested at 0.3 μg/mL. Based on an average molecular weight of 300 g/mol for the compounds in the library, the concentration is approximately 1 μM. Compounds active in this assay can be tested in dose response assays to determine EC50 and IC50.
C. Alkaline Phosphatase Enzyme Assay: • At the end of treatment, the medium is removed from the plate. Fifty μL of assay buffer I is added to each well. The plates are shaken in a titer plate shaker for 15 minutes. Then 150 μL of assay buffer II is added to each well. Optical density measurements are taken at 5 minute intervals for 30 minutes at a test wavelength of 405 nm.
D. Analysis of Results: Analysis of Dose-Response Data • For reference and test compounds, a dose response curve is generated for dose (X-axis) vs. the rate of enzyme reaction (slope) (Y-axis). Square root-transformed data are used for analysis of variance and nonlinear dose response curve fitting for both agonist and antagonist modes. Huber weighting is used to down-weight the effects of outliers. EC50 or IC50 values are calculated from the retransformed values. JMP® software (SAS Institute, Inc.) is used for both one-way analysis of variance and non-linear dose response analysis in both single dose and dose response studies.
E. Reference Compounds • Progesterone and trimegestone are reference progestins and RU486 is the reference antiprogestin. All reference compounds are run in full dose response curves and the EC50 and IC50 values are calculated.

Data set [2] concerns the target T1, progesterone receptor (PR) (Homo sapiens, UniProt P06401).
T1 construct: in live, intact (whole) cells, using the human breast carcinoma T47D cell line; endogenous in cells; host or cells: T47D human breast carcinoma cells
T1 sequence (P06401 1-933): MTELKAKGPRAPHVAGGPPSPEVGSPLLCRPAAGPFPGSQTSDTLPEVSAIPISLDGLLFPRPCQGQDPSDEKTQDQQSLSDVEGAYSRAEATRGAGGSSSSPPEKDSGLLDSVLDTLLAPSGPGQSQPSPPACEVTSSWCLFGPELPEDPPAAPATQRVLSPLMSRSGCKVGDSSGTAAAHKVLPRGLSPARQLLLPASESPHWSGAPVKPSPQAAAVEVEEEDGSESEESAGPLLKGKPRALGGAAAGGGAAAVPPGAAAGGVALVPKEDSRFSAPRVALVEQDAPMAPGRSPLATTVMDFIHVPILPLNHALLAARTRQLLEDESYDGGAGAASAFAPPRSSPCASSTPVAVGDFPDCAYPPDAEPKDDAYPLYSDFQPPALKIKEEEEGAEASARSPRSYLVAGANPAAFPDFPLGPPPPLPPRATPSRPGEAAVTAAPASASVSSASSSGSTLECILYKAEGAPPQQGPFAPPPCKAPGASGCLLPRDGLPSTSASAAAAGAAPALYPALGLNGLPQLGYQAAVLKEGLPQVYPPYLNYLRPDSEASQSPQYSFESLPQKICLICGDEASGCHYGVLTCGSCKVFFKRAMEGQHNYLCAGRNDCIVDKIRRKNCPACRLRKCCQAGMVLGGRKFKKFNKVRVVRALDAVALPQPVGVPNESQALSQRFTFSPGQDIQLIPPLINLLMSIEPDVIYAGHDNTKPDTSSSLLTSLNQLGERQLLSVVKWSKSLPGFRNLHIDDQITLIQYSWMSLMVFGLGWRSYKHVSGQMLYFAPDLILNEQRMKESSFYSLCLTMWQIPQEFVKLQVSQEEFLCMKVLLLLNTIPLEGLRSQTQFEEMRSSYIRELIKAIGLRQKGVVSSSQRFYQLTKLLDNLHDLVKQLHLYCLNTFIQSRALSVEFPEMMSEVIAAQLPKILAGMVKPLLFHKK
Put plainly: Progesterone receptor whole cell competition binding assay using T47D cells. The following applies: intact T47D cells, 3 nM 3H-progesterone, 3 hours at 37° C. Here is the method:
The purpose of this example is to evaluate the progesterone receptor (PR) binding activity of progestins or antiprogestins in live, intact (whole) cells, using the human breast carcinoma T47D cell line and ^3H-progesterone as the labeled ligand.
A. Reagents: • Culture medium: • (i) 5% RC which is phenol red free Dulbecco's Modified Eagles Medium (DMEM):F12 (1:1) (GIBCO, BRL) supplemented with 5% (v/v) charcoal stripped fetal bovine serum (not heat-inactivated), 100 U/mL penicillin, 100 μg/mL streptomycin, and 2 mM of the GlutaMax™ reagent (GIBCO, BRL) • (ii) 10% RC is 5% RC supplemented with 10% (v/v) FBS • ^3H-Progesterone: Perkin Elmer Life Science, cat# NET-381 (typically around 102 Ci/mmol) • Liquid Scintillation Cocktail: Beckman Coulter, the Ready-Safe™ reagent; cat# 141349 • Tissue Culture Plates: 96 well, clear bottom, white, plates (VWR Part # 29443-150 or Perkin Elmer Part # 3983498)
B. T47D Cell Culture: • T47D cells are maintained in 10% RC media at 37° C. in a 5% CO2/humidified atmosphere and need to be split twice weekly for proper response. Cells are plated in 10% RC the day before binding assay at 50,000 cells per well in the white, clear bottom plates purchased through VWR or Perkin Elmer.
Cells plated the day prior to the assay in white clear bottom plates are used. A master compound plate is set up containing control and test compounds at 20X final desired concentration for the competition binding. A typical dose range of 20X concentrations are (in nM); 200,000; 20,000; 6000; 2000; 600; 200; 20; and 2. Final concentrations are then (in nM); 10,000; 1000; 300; 100; 30; 10; 1; 0.1. Control compounds are typically run 10-fold lower than this and include a 0, or vehicle, control well. A stock of 60 nM ^3H-progesterone (20X) is also prepared at a volume needed of 10 μL per well.
Media on cells are replaced with 180 μL of 5% RC. Ten microliters (10 μL) of 60 nM ^3H-progesterone (for final concentration of 3 nM) is added immediately followed by 10 μL of 20X test or control compounds. Compounds are incubated for 3 hours at 37° C. A time course study found no difference between 2 and 4 hours incubation.
Following incubation, media is carefully removed and cells are washed 3X with 200 μL 5% RC each wash. Fifty microliters of liquid scintillation cocktail is added and the plates are shaken vigorously for a minimum of 15 minutes. Plates are read on the Wallac Microbeta® 1450 plate reader.
D. Analysis of Results: • Square root-transformed data are used for analysis of variance and calculation of IC50. SAS software (SAS Institute, Inc.) is used for all the statistical analysis.
E. Reference Compounds: • Progesterone is used as a reference progestin and RU486 as a reference antiprogestin.

Molecules are shown by their SMILES.

For the molecule `CC/C(=C\C#N)c1ccc2c(c1)C(CC)(CC)OC(=O)N2` [Example 23, (2E)-3-(4,4-Diethyl-2-oxo-1,4-dihydro-2H-3,1-benzoxazin-6-yl)pent-2-enenitrile], the melting point is 135 to 136 °C. Also, the IC50 in data set [1] is 29.2 nM. In data set [2], this molecule showed an IC50 of 52.8 nM.

Regarding `CC/C(=C\C#N)c1ccc2c(c1)C(C)(C)OC(=O)N2` [Example 28, (2E)-3-(4,4-Dimethyl-2-oxo-1,4-dihydro-2H-3,1-benzoxazin-6-yl)pent-2-enenitrile], the inhibition at 0.03 µM in data set [1] (at 30 nM, in the presence of 1 nM progesterone) worked out at 70%. The molecule further had an IC50 in data set [2] of 89.8 nM.

On to `CCC/C(=C\C#N)c1ccc2c(c1)C(CC)(CC)OC(=O)N2` [Example 25, (2E)-3-(4,4-Diethyl-2-oxo-1,4-dihydro-2H-3,1-benzoxazin-6-yl)hex-2-enenitrile], for which the melting point fell in the range of 121 to 124 °C. The concentration for half-maximal inhibition (IC50) in data set [1] was determined as 16.1 nM. The molecule also returned an IC50 in data set [2] of 49.2 nM.

Consider `CCC/C(=C\C#N)c1ccc2c(c1)C1(CCCCC1)OC(=O)N2` [Example 20, (2E)-3-(2-Oxo-1,2-dihydrospiro[3,1-benzoxazine-4,1′-cyclohexan]-6-yl)hex-2-enenitrile], for which the 50% inhibitory concentration (IC50) in data set [1] was determined as 55.7 nM; in data set [2] it was 46.5 nM.

On to `CCC/C(=C\C#N)c1ccc2c(c1)C(C)(C)OC(=O)N2` [Example 29, (2E)-3-(4,4-Dimethyl-2-oxo-1,4-dihydro-2H-3,1-benzoxazin-6-yl)hex-2-enenitrile], for which, in data set [1] (at 300 nM, in the presence of 1 nM progesterone), the inhibition at 0.3 µM stood at 84%. The molecule also returned an IC50 in data set [2] of 104 nM.

Take `C/C(=C/C#N)c1ccc2c(c1)C(C)(C)OC(=O)N2` [Example 12, (2Z)-3-(4,4-Dimethyl-2-oxo-1,4-dihydro-2H-3,1-benzoxazin-6-yl)but-2-enenitrile]: the melting point is 213 to 215 °C. Besides, the inhibition at 3 µM in data set [1] (at 3000 nM, in the presence of 1 nM progesterone) is 25%. In data set [2], this molecule had an IC50 of 1390 nM.

Molecule `COC(=O)/C=C(\C)c1ccc2c(c1)C(C)(C)OC(=O)N2` [Example 9, Methyl(2E)-3-(4,4-dimethyl-2-oxo-1,4-dihydro-2H-3,1-benzoxazin-6-yl)but-2-enoate] had a melting point of 131 to 132 °C. Moreover, the IC50 in data set [1] was found to be 61.8 nM. The molecule also had an IC50 in data set [2] of 84.8 nM.

With `CCC1(CC)OC(=O)Nc2ccc(/C(C)=C/C#N)cc21` [Example 22, (2E)-3-(4,4-Diethyl-2-oxo-1,4-dihydro-2H-3,1-benzoxazin-6-yl)but-2-enenitrile], the melting point is 159 to 160 °C. Also, the IC50 in data set [1] was found to be 49.6 nM. In data set [2], this molecule yielded an IC50 of 150 nM.

For the molecule `C/C(=C\C#N)c1ccc2c(c1)C(C)(C)OC(=O)N2` [Example 13, (2E)-3-(4,4-Dimethyl-2-oxo-1,4-dihydro-2H-3,1-benzoxazin-6-yl)but-2-enenitrile], the melting point was in the range of 230 to 232 °C. In data set [1], the half-inhibitory concentration (IC50) turned out to be 38.2 nM. This molecule also showed a half-inhibitory concentration (IC50) in data set [2] of 48.1 nM.

Take `CC1(C)OC(=O)Nc2ccc(/C(=C/C#N)c3ccccc3)cc21` [Example 6, (2E)-3-(4,4-Dimethyl-2-oxo-1,4-dihydro-2H-3,1-benzoxazin-6-yl)-3-phenylacrylonitrile]: the melting point was 205 to 206 °C. Also, the half-inhibitory concentration (IC50) in data set [1] was found to be 80.3 nM. In data set [2], this molecule had an IC50 of 82.5 nM.

As for `CC(C)/C(=C\C#N)c1ccc2c(c1)C(C)(C)OC(=O)N2` [Example 30, (2E)-3-(4,4-Dimethyl-2-oxo-1,4-dihydro-2H-3,1-benzoxazin-6-yl)-4-methylpent-2-enenitrile], the 50% inhibitory concentration (IC50) in data set [1] was 84.6 nM; in data set [2], 777 nM.

`CCC1(CC)OC(=O)Nc2ccc(/C(=C/C#N)C(C)C)cc21` [Example 27, (2E)-3-(4,4-Diethyl-2-oxo-1,4-dihydro-2H-3,1-benzoxazin-6-yl)-4-methylpent-2-enenitrile] came in with a melting point of 138 to 140 °C. Moreover, the IC50 in data set [1] came to 208 nM. In data set [2], this molecule yielded an IC50 of 1420 nM.

As a reminder, the IC50 is the point on the concentration scale where inhibition reaches its midpoint. Broadly, the melting point is the temperature of the solid-liquid transition. The term inhibition denotes the change of the read-out against control, counted positive when it falls.

For the origin of these results see patent US20090197878A1, “SUBSTITUTED BENZO[d][1,3]OXAZIN-2(4H)-ONES AND RELATED DERIVATIVES AND THEIR USES FOR MODULATING THE PROGESTERONE RECEPTOR” (Wyeth, priority 2008, published 2009).
